According to publication PMC5012913 (Analytical biochemistry, 2016):
Converted amounts (≈) assume the structure as drawn. “Also recorded” adds a separate entry of the source. Where two headings read alike, the source gives them in different places.

What was measured:
[1] = test system: WecA; conditions: cited from earlier work
[2] = target: WecA enzyme (P-60 from E. coli B21WecA) (Escherichia coli, UniProt P0AC78); experiment: biochemical; assay type: biochemical
[3] = target: M. smegmatis WecA (P-60) (Mycolicibacterium smegmatis, UniProt A0R211); experiment: Kinetic parameter evaluation via WecA activity assay; assay type: biochemical; conditions: for Vmax for C50-P-P-Glucosamine-C6-FITC synthesis: crude membrane P-60, Michaelis-Menten plot
[4] = target: T1, M. smegmatis WecA (Mycolicibacterium smegmatis, UniProt A0R211); assay type: biochemical
T1 sequence (A0R211 1-406): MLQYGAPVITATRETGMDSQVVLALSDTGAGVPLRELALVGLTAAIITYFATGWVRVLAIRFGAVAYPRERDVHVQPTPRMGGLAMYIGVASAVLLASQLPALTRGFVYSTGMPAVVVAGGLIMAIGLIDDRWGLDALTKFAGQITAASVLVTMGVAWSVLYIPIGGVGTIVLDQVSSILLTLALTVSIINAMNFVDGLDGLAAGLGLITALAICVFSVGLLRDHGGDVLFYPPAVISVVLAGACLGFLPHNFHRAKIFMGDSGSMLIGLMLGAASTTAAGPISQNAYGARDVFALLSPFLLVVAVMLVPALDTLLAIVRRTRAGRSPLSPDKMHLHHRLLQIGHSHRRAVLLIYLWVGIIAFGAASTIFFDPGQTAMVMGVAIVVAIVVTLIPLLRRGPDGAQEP

[5] = test system: non-replicating Mtb; experiment: Wayne model under low-oxygen conditions; assay type: cell-based
[6] = test system: intracellular Mtb CDC1551-tdTomato in J774A.1 cells; experiment: Killing effect against intracellular M. tuberculosis in J774A.1 macrophages; assay type: cell-based
[7] = target: T2, MurX (Mycolicibacterium smegmatis, UniProt A0R019); conditions: cited from earlier work
T2 sequence (A0R019 1-359): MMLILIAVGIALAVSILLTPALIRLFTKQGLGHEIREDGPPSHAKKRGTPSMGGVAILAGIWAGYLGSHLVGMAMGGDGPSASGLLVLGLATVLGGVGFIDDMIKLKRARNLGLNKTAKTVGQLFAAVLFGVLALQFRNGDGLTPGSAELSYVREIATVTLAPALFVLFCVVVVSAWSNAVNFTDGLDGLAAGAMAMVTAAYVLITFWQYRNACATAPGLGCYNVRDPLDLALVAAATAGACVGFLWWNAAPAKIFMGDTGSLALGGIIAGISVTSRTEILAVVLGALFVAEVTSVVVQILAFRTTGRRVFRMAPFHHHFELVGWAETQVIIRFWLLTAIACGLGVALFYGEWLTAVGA

[8] = test system: M. tuberculosis; experiment: MIC determination against replicating Mtb; assay type: cell-based, Mycobacterium tuberculosis (H37Rv); conditions: aerobic
[9] = test system: non-replicating Mtb H37Rv (pFCA-luxAB); assay type: cell-based, M. tuberculosis H37Rv; conditions: for MICLORA/MICMABA: ratio of LORA MIC to MABA MIC

**Q.** With `CCCCc1ccc(NC(=O)C2=CCN(C)[C@@H]([C@H](O[C@@H]3O[C@H](CN)[C@@H](O)[C@H]3O)[C@H]3O[C@@H](n4ccc(=O)[nH]c4=O)[C@H](O)[C@@H]3O)C(=O)N2C)cc1` [CPZEN-45] as the molecule, how does the “WecA inhibition” value [1] read?
**A.** inhibit WecA at low concentrations

**Q.** For `CO[C@H]1[C@@H](O)[C@H](n2ccc(=O)[nH]c2=O)O[C@@H]1[C@@H](O[C@H]1OC(C(=O)N[C@H]2CCCCNC2=O)=C[C@H](O)[C@@H]1O)C(N)=O` [Capuramycin (6), Capuramycin], which “WecA enzyme inhibitory activity” value ([2]; at 20 µg/mL) is on record?
**A.** no WecA enzyme inhibitory activity

**Q.** What about the inhibition at 0.02 µg/mL ([2]; read-out: WecA inhibition (%)) of the same molecule?
**A.** 0%

**Q.** And the inhibition at 2 µg/mL ([2]; read-out: WecA inhibition (%))?
**A.** 0%

**Q.** And the inhibition at 20 µg/mL ([2]; read-out: WecA inhibition (%))?
**A.** 0%

**Q.** With `CCCCCCCCCC(=O)O[C@@H]1[C@H](OC)[C@@H]([C@@H](O[C@H]2OC(C(=O)N[C@H]3CCC[C@@H](C)NC3=O)=C[C@H](O)[C@@H]2O)C(N)=O)O[C@H]1n1ccc(=O)[nH]c1=O` [SQ641 (8)] as the molecule, how does the “WecA enzyme inhibitory activity” value [2] read?
**A.** no WecA enzyme inhibitory activity

**Q.** With `CC(=O)N[C@H]1[C@@H](OP(=O)(O)OP(=O)(O)OC[C@H]2O[C@@H](n3ccc(=O)[nH]c3=O)[C@H](O)[C@@H]2O)O[C@H](CO)[C@@H](O)[C@@H]1O` [UDP-GlcNAc] as the molecule, how does the Km ([3]; 140 µM exogenous decaprenyl phosphate (C50-P)) read?
**A.** 110 µM

**Q.** For `COC1C(C(OC2OC(C(=O)NC3CCCCNC3=O)=CC(O)C2O)C(N)=O)OC(n2ccc(=O)[nH]c2=O)C1OC` (centres unmarked) [UT-01320 (12)], which “WecA enzyme inhibitory activity” value [2] is on record?
**A.** inhibited completely

**Q.** What about the “WecA inhibition (%) obtained via HPLC” value [2] of the same molecule?
**A.** 100 (100) %

**Q.** And the “IC50 against M. smegmatis wecA” value [4]?
**A.** 0.0507 µg/mL (≈ 0.0869 µM)

**Q.** And the “Effectiveness in non-replicating Mtb (Wayne model)” value [5]?
**A.** confirmed

**Q.** And the “Bactericidal effect against intracellular Mtb (words, comparison with TB drugs)” value ([6]; 2x and 4x MIC, up to 72h, J774A.1, listed as 12)?
**A.** equal to those of capreomycin; also recorded: faster killing effect than rifampicin

**Q.** What about the “Time to kill Mtb in infected macrophages” value ([6]; x2 MICLORA, […]) of the same molecule?
**A.** ≤ 72 h

**Q.** What about the “MurX enzyme inhibitory activity” value ([7]; even at 400 µg/mL, as previously reported) of the same molecule?
**A.** did not exhibit MurX enzyme inhibitory activity

**Q.** And the “MIC (MABA), replicating Mtb” value [8]?
**A.** 1.5 µg/mL (≈ 2.57 µM)

**Q.** And the “MIC (LORA), non-replicating Mtb” value ([9]; low-oxygen conditions)?
**A.** 2.58 µg/mL (≈ 4.42 µM)

**Q.** What about the MICLORA/MICMABA [9] of the same molecule?
**A.** 1.72

**Q.** Which MICLORA/MICMABA [9] does the source give for `CO[C@H]1/C=C/O[C@@]2(C)Oc3c(C)c(O)c4c(O)c(c(/C=N/N5CCN(C)CC5)c(O)c4c3C2=O)NC(=O)/C(C)=C\C=C\[C@H](C)[C@H](O)[C@@H](C)[C@@H](O)[C@@H](C)[C@H](OC(C)=O)[C@@H]1C` [rifampicin, reference compound] here?
**A.** 7.35

**Q.** Which “Vmax for C50-P-P-Glucosamine-C6-FITC synthesis” value [3] does the source give for “Decaprenyl-P-P-Glucosamine-C6-FITC [C50-P-P-Glucosamine-C6-FITC (3)]” here?
**A.** 0.404 µM/min

**Q.** What about the “Vmax for C50-P-P-Glucosamine-C6-FITC synthesis” value ([3]; listed as C50-P-P-Glucosamine-C6-FITC) of the same molecule?
**A.** 0.4041 µM/min

**Q.** Which results are given for “Tunicamycin [Tunicamycin (5), reference compound]”?
**A.** IC50 against M. smegmatis wecA ([4]; UV-Vis dose-response curve): 0.59 µg/mL; IC50 against MurX [7]: 2.31 µg/mL

**Q.** For “UDP-Glucosamine-C6-FITC [UDP-Glucosamine-C6-FITC (1)]”, which Km ([3]; with undecaprenyl phosphate) is on record?
**A.** 196 µM
